Results: patent US10925875B2 (National Jewish Health, priority 2018, dated 2021)

How the values were obtained:
Type in all cases: cell-based, human
[1] = test system: IL5+ ILC2s from the blood; assay: Steroid response of blood IL5+ ILC2s by flow cytometry; details: MNC and BAL cells, Dex 10^−7M, 3 days, e-Fluor 780
Description: (§1) FIGS. 1A and 1B show the effect of dexamethasone (Dex) on blood (A) and bronchoalveolar lavage (BAL) (B) Type 2 innate lymphoid cells (ILC2s). Peripheral blood mononuclear cells (PBMC) and BAL cells from an asthmatic patient were cultured with vehicle (V, ethanol)) or dexamethasone (Dex 10^−7M), a synthetic steroid, for 3 days. The frequency of lin−CRTH2+IL7Rα+IL5+ cells (considered as markers of ILC2s) was measured by flow cytometry (FCM) and analyzed by FlowJo. Frequency of dead cells (measured by e-Fluor 780, e-Bioscience) was less than 10% and excluded from the gating. The difference in dead cells between V and Dex was less than 10%). Prostaglandin D2 receptor 2 (CRTH2); interleukin-7 receptor alpha (IL7Rα); interleukin-5 (IL-5).
FIGS. 1C and 1D show the cumulative data on the effect of dexamethasone (Dex) on blood (FIG. 1C) and BAL (FIG. 1D) lin−CRTH2+IL7Rα+IL5+ cells from 14 allergic asthmatic patients.
(§2) Steroid response of ILC2s from the bronchoalveolar lavage (BAL, obtained during bronchoscopy) and blood obtained from asthmatic patients was studied. Blood was processed to isolate mononuclear cells (MNC). BAL cells were studied without further processing. […] Interluekin-5 (IL5)-expressing ILC2s were examined by flow cytometry and analyzed by FlowJo. […] Frequency of dead cells (measured by e-Fluor 780, e-Bioscience) was less than 10% and excluded from the gating. […]

[2] = test system: intracellular IL5 expression in ILCs; assay: Intracellular IL5 by FCM in isolated Lin− blood cells; details: Dex 10^-7 M, 5 days
Description: (§3) FIGS. 2C and 2D show lineage-negative (Lin−) cells (0.4×10^6 per culture) from peripheral blood obtained from 3 allergic rhinitis (non-asthmatic) patients were cultured with IL2/IL33 or IL2/TSLP with and without Dex (10^-7 M) for 5 days. Cell-free supernatant was analyzed for IL5 by ELISA. Cells were analyzed by FCM for intracellular IL5. P value for data on panel C was calculated by paired t test due to low N. Interleukin-2 (IL-2); interleukin-33 (IL-33).
(§4) The direct effect of Dex on isolated lineage− negative (Lin−) cells (representing ILCs) from the peripheral blood was examined. The effect of Dex was measured by two approaches: measurement of secreted IL5 by ELISA and measurement of the expression of intracellular IL5 by FCM. Dex inhibited IL5 secretion by IL2/IL33-stimulated ILCs by nearly 79% (FIG. 2C). In contrast, it inhibited IL5 secretion by IL2/TSLP-stimulated ILCs by only 25%. […] Dex inhibited intracellular IL5 expression in IL2/IL33- and IL2/TSLP-stimulated ILCs by 65% and 18%, respectively (FIG. 2D).

IL5 secretion by ILCs = assay: Secreted IL5 by ELISA from isolated Lin− blood cells; details: Dex 10^-7 M, 5 days
Description: as §3, §4

MEK1/2 in ILC2s = assay: Cytokine-induced MEK1/2 in ILC2s by FCM; details: PBMCs, IL2 plus TSLP with and without Dex, 5 days, lin−CRTH2+ cells
Description: FIGS. 4A and 4B show the effect of Dex on cytokine-induced MEK1 (MEK) induction. PBMCs from an asthmatic patient were cultured with medium or IL2 plus one of the two epithelial ILC-inducing cytokines—IL33 and TSLP with and without Dex for 5 days. The expression of MEK on gated live lin−CRTH2+ cells was analyzed by FCM.
Heightened MEK1/2 mediates steroid resistance of lymphocytes. The effect of IL33 and TSLP on MEK1/2 induction and the effect of Dex was examined.

BAL IL5+ ILC2s = assay: Steroid response of BAL IL5+ ILC2s by flow cytometry; details: BAL cells, MS 100 μM with and without Dex 10^−7M, 3 days
Description: as §1, with “(IL-5). […]” for “(IL-5).”
BAL cells were cultured with MS (100 μM) with and without Dex (10^−7M) for 3 days. IL5 expression by lin−CRTH2+IL7Rα+ ILC2s was measured by FCM (N=8, *: P=0.0006 by Kruskal Walis test).
as §2, with “studied.” for “studied. Blood was processed to isolate mononuclear cells (MNC). BAL cells were studied without further processing.”

difference in dead cells between V and Dex [1]: less than 10%
Compound: C[C@@H]1C[C@H]2[C@@H]3CCC4=CC(=O)C=C[C@]4(C)[C@@]3(F)[C@@H](O)C[C@]2(C)[C@@]1(O)C(=O)CO [Dex, dexamethasone]
inhibition of intracellular IL5 expression ([2]; IL2/IL33-stimulated ILCs): 65%
inhibition of intracellular IL5 expression ([2]; IL2/TSLP-stimulated ILCs): 18%
inhibition of IL5 secretion (IL5 secretion by ILCs; IL2/IL33-stimulated ILCs): ~79%
inhibition of IL5 secretion (IL5 secretion by ILCs; IL2/TSLP-stimulated ILCs): 25%
TSLP-induced MEK1/2 (MEK1/2 in ILC2s): failed to inhibit
inhibition of BAL IL5+ ILC2s (BAL IL5+ ILC2s): failed to inhibit
